For series [1], the system named is MEFs transfected with OSKM. In words: efficiency of iPSC generation from OSKM-transfected MEFs (ALP staining). Particulars: induced by OSKM, day 21 post-reprogramming. The class given is cell-based, mouse. An excerpt: C57/B6 mice were used in this study and all procedures involving animals were approved by the Animals Committee of the Taipei Veterans General Hospital. Murine iPSCs were generated from mouse embryonic fibroblasts (MEFs) derived from 13.5-day-old embryos of C57/B6 mice. The iPSCs were reprogrammed by the transduction of retroviral vectors encoding four transcription factors (Oct4/Sox2/Klf4/c-Myc; OSKM), or three transcription factors (Oct4/Sox2/Klf4; OSK), as described previously (Li et al., 2011). Total of 12 clones (Re-1 to Re-12; OSKM) were selected and established. The clone of Re-7 iPSCs had been stably passed to more than 100 th passages with high pluripotency. Therefore, Re-7 iPSCs were selected and widely used in this study. Briefly, undifferentiated iPSCs were routinely cultured and expanded on mitotically-inactivated MEFs (50,000 cells/cm 2) in six-well culture plates (BD Technology) in the presence of 0.3% leukemia inhibitory factor in an iPSC medium consisting of Dulbecco's Modified Eagle's Medium (DMEM; Sigma) supplemented with 15% fetal bovine serum (FBS; Invitrogen), […] minimal essential medium (MEM) nonessential amino acids (Sigma), 0.55 mM 2-mercaptoethanol (Gibco), and antibiotics (Invitrogen). Every three to four days, colonies were detached with 0.2% collagenase IV (Invitrogen), dissociated into single cells with 0.025% trypsin (Sigma) and 0.1% chicken serum (Invitrogen) in PBS, and replated onto MEFs. For embryoid body (EB) formation, iPSCs were dissociated into a single cell suspension by 0.25% trypsin-EDTA and plated onto non-adherent culture dishes in DMEM with 15% FBS, […] MEM nonessential amino acids, 0.55 mM 2-mercaptoethanol, and antibiotics at a density of 2×10^6 cells/100 mm plate. After 4 days in floating culture, EBs were transferred onto gelatin-coated plates and maintained in the same medium for 24 h. EBs were then assigned for in vitro differentiation into tridermal lineages as previously described (Li et al., 2011). […]

Series [2] relates to Mice (C57/B6). In words: CCl4-induced acute liver injury model. In kind it is in vivo, mouse. Particulars: CCl4-injured mice. On the procedure:
(§1) Mice (C57/B6, 8 to 10 weeks) were housed in cage and allowed free access to food and water. Mouse was given carbon tetrachloride (CCl4, Sigma) in mineral oil (0.35·μl/g, single dose, i.p.) to induce liver injury. At 4 h post-injury, mice were randomized to receive vehicle (PBS), iPS cells or iHL (2×10^6 cells/in 100 μl PBS) infusions via tail veins. For the time points study, mouse received blood withdrawal (˜100 μl) from facial veins at scheduled time for liver biochemistry. When mouse was sacrificed, blood was drawn from the heart and the liver was harvested and prepared for subsequent experiments including histochemistry, cytokine assay, protein and gene expression analysis. For neutralizing antibody study, mouse was given two doses (0.5 μg/dose, i.p.) of anti-IP-10 antibodies (Abcam, ab9938, Cambridge, UK) at 4 h before and 4 h after injury. For 72 h survival study, mice received repetitive CCl4 injury at 0, 24 and 48 h. […]
The paraffin sections of livers were stained by H.E. and photo-taken under microscopy at 40× magnification to evaluate the degree of injury. Necrotic area were determined by measuring five independent fields per liver using a computerized morphometry system (MicroCam, M&T OPTICS, Taiwan) and expressed as percentage of the filed area. […]

The test system of a further series is hepatocytes. In words: viability of CCl4-injured hepatocytes (MTT assay). The class given is cell-based. Conditions: 0.5 or 5 ng, CCl4 concentration of 1.0 to 2.5 mM, 24 h. On the procedure: Mouse germline-competent iPS cells were provided by Kyoto University (Dr. Shinya Yamanaka) and RIKEN BRC, Japan (Takahashi K et al. (2006) Cell 126:663-676). IPS cells were cultured as previously described (Okita K et al. (2007) Nature 448: 313-317.9). […] For recombinant IP-10 (rIP-10, Peprotech, NC) study, hepatocytes were seeded on 24-well plates at the same density. The rIP-10 (0.5 ng or 5 ng) was given at 4 h post-injury. The viability of hepatocytes was evaluated at 24 h by methyl thiazol tetrazolium (MTT, Sigma) assay.
(Tetrazolium assays rely on reduction of a dye to a coloured formazan, in cell work by metabolically active cells.)

Series [3] relates to Mice (C57/B6). Description: 72-hour survival of repetitive CCl4-injured mice. The class given is in vivo, mouse. Particulars: repetitive CCl4 at 0, 24 and 48 h; treatment once at 4 h. On the procedure: as §1, with “h. The iPS cells (2×10^6 cells/in 100 μl PBS) or recombinant IP10 (rIP10, 0.5 ng) were given once at 4 h and the mortality rate of mice was observed until 72 h post-injury.” for “h.”
To evaluate the survival effects of iPS cells and IP-10, the 72-hour survival rates were evaluated in repetitive CCl4-injured mice, to which two additional doses of CCl4 (given at 24 and 48 hours) were given after the first dose. […]

4 compounds from patent publication US20140093486A1, “METHOD FOR PREPARING INDUCED PLURIPOTENT STEM CELLS AND ITS APPLICATIONS” (Taipei Veterans General Hospital, priority 2012, published 2014) can be followed below.

On to `NC(=O)c1cccc(N)c1` [3-aminobenzamide], for which, in series [1], the “efficiency of iPSC generation” value is given as “reduction in the efficiency of iPSC generation”.

As for `C[C@]1(c2nc3c(C(N)=O)cccc3[nH]2)CCCN1` [ABT-888], in series [1], the “efficiency of iPSC generation” value was “reduction in the efficiency of iPSC generation”.

Turning to `CN(C)CC(=O)Nc1ccc2[nH]c(=O)c3ccccc3c2c1` [PJ-34], the “efficiency of iPSC generation” value in series [1] is reported as “reduction in the efficiency of iPSC generation”.

Take rIP-10: recombinant IP-10 (Peprotech): the “degree of liver damage” value in the series with Mice (C57/B6) [2] was “significantly reduced”. Besides, the “viability of injured hepatocytes” value in the series with hepatocytes is given as “sufficiently increased the viability”. This compound also displayed a 72-hour survival rates in the series on Mice (C57/B6) [3] of 100%.
